Reference: ChEMBL document CHEMBL3792294, “Efficient synthesis of new 2,3-dihydrooxazole-spirooxindoles hybrids as antimicrobial agents” (2016)
In brackets after ≈: the same amount, converted by molar mass. Activity calls are given as the source filed them. The rule behind the calls is not given here.

How the values were obtained:
Type in all cases: functional
Pyricularia oryzae = assay: Antifungal activity against Pyricularia oryzae after 48 hrs by agar diffusion method
Klebsiella pneumoniae = assay: Antibacterial activity against Klebsiella pneumoniae after 24 hrs by spectrophotometry
Podosphaera fuliginea = assay: Antifungal activity against Sphaerotheca fuliginea after 72 hrs by agar diffusion method
Enterobacter = assay: Antibacterial activity against Enterobacter after 24 hrs by spectrophotometry
Bacillus subtilis = assay: Antibacterial activity against Bacillus subtilis after 24 hrs by spectrophotometry
[1] = test system: Pseudoperonospora cubensis; assay: Antifungal activity against Pseudoperonospora cubensis after 72 hrs by agar diffusion method
Phytophthora infestans = assay: Antifungal activity against Phytophthora infestans after 72 hrs by agar diffusion method

Row | Compound | MIC (Pyricularia oryzae) | MBC (Klebsiella pneumoniae) | MIC (Klebsiella pneumoniae) | MIC (Podosphaera fuliginea) | MBC (Enterobacter) | MIC (Enterobacter) | MBC (Bacillus subtilis) | MIC (Bacillus subtilis) | MIC [1] | MIC (Phytophthora infestans)
1 | O=C(NN1C(c2ccccc2)=C(c2ccccc2)OC12C(=O)Nc1ccccc12)c1ccc(Cl)cc1 (stereo not given) | 14 µg/mL (≈ 28.3 µM) | 100 µg/mL (≈ 202 µM) | 50 µg/mL (≈ 101 µM) | 12 µg/mL (≈ 24.3 µM) | 50 µg/mL (≈ 101 µM) | 30 µg/mL (≈ 60.7 µM) | 100 µg/mL (≈ 202 µM) | 50 µg/mL (≈ 101 µM) | 12 µg/mL (≈ 24.3 µM) | 14 µg/mL (≈ 28.3 µM)
2 | O=C(NN1C(c2ccccc2)=C(c2ccccc2)OC12C(=O)Nc1ccccc12)c1ccc([N+](=O)[O-])cc1 (stereo not given) | 16 µg/mL (≈ 31.7 µM) | inactive | inactive | 12 µg/mL (≈ 23.8 µM) | 50 µg/mL (≈ 99.1 µM) | 30 µg/mL (≈ 59.5 µM) | 50 µg/mL (≈ 99.1 µM) | 30 µg/mL (≈ 59.5 µM) | 18 µg/mL (≈ 35.7 µM) | 12 µg/mL (≈ 23.8 µM)
3 | Cc1ccccc1OCC(=O)NN1C(c2ccccc2)=C(c2ccccc2)OC12C(=O)Nc1ccccc12 (stereo not given) | 17 µg/mL (≈ 33.8 µM) | inactive | inactive | 12 µg/mL (≈ 23.8 µM) | 50 µg/mL (≈ 99.3 µM) | 30 µg/mL (≈ 59.6 µM) | inactive | inactive | 8 µg/mL (≈ 15.9 µM) | 18 µg/mL (≈ 35.7 µM)
4 | COc1ccc(C(=O)NN2C(c3ccccc3)=C(c3ccccc3)OC23C(=O)Nc2ccccc23)cc1 (stereo not given) | 12 µg/mL (≈ 24.5 µM) | inactive | inactive | 8 µg/mL (≈ 16.3 µM) | 100 µg/mL (≈ 204 µM) | 50 µg/mL (≈ 102 µM) | 200 µg/mL (≈ 409 µM) | 100 µg/mL (≈ 204 µM) | 14 µg/mL (≈ 28.6 µM) | 14 µg/mL (≈ 28.6 µM)
5 | O=C(NN1C(c2ccccc2)=C(c2ccccc2)OC12C(=O)Nc1ccccc12)c1ccccc1O (stereo not given) | 16 µg/mL (≈ 33.6 µM) | inactive | inactive | 12 µg/mL (≈ 25.2 µM) | 50 µg/mL (≈ 105 µM) | 40 µg/mL (≈ 84.1 µM) | 100 µg/mL (≈ 210 µM) | 70 µg/mL (≈ 147 µM) | 12 µg/mL (≈ 25.2 µM) | 14 µg/mL (≈ 29.4 µM)
6 | Cc1cccc(OCC(=O)NN2C(c3ccccc3)=C(c3ccccc3)OC23C(=O)Nc2ccccc23)c1 (stereo not given) | 20 µg/mL (≈ 39.7 µM) | inactive | inactive | inactive | 100 µg/mL (≈ 199 µM) | 40 µg/mL (≈ 79.4 µM) | inactive | inactive | inactive | 12 µg/mL (≈ 23.8 µM)
7 | Cc1ccc(OCC(=O)NN2C(c3ccccc3)=C(c3ccccc3)OC23C(=O)Nc2ccccc23)cc1 (stereo not given) | 8 µg/mL (≈ 15.9 µM) | inactive | inactive | 12 µg/mL (≈ 23.8 µM) | 100 µg/mL (≈ 199 µM) | 50 µg/mL (≈ 99.3 µM) | inactive | inactive | 12 µg/mL (≈ 23.8 µM) | 14 µg/mL (≈ 27.8 µM)
8 | O=C(COc1ccccc1)NN1C(c2ccccc2)=C(c2ccccc2)OC12C(=O)Nc1ccccc12 (stereo not given) | 15 µg/mL (≈ 30.6 µM) | inactive | inactive | 16 µg/mL (≈ 32.7 µM) | 100 µg/mL (≈ 204 µM) | 40 µg/mL (≈ 81.7 µM) | 100 µg/mL (≈ 204 µM) | 50 µg/mL (≈ 102 µM) | 12 µg/mL (≈ 24.5 µM) | 14 µg/mL (≈ 28.6 µM)
9 | O=C(COc1ccc(Cl)cc1Cl)NN1C(c2ccccc2)=C(c2ccccc2)OC12C(=O)Nc1ccccc12 (stereo not given) | inactive | 50 µg/mL (≈ 89.5 µM) | 25 µg/mL (≈ 44.8 µM) | 14 µg/mL (≈ 25.1 µM) | 100 µg/mL (≈ 179 µM) | 40 µg/mL (≈ 71.6 µM) | 50 µg/mL (≈ 89.5 µM) | 25 µg/mL (≈ 44.8 µM) | inactive | inactive
10 | O=C(O)c1cn(C2CC2)c2cc(N3CCNCC3)c(F)cc2c1=O [CIPROFLOXACIN] | – | 25 µg/mL (≈ 75.4 µM) | 6.25 µg/mL (≈ 18.9 µM) | – | 25 µg/mL (≈ 75.4 µM) | 10.2 µg/mL (≈ 30.9 µM) | 12.5 µg/mL (≈ 37.7 µM) | 6.25 µg/mL (≈ 18.9 µM) | – | –
11 | NYSTATIN | 20 µg/mL | – | – | 18 µg/mL | – | – | – | – | 18 µg/mL | 18 µg/mL
